Entries after “also recorded” stand apart in the source; their conditions may differ.
Legend:
male CD1 mice = assay: Baker yeast-induced hyperthermia antipyresis assay; type: in vivo, mouse; settings: 15% yeast ip, drug 75 mg/kg per os
Procedure: Antipyresis experiments were carried out with n=60 CD-1 male mice weighing between 45-50 g. All mice were kept in a 12-h day/12-h night cycle with free access to food and water ad libitum. After habituating and acclimating the mice for a week, each mouse was briefly anesthetized for 1 min with 1% isoflurane and implanted subcutaneously a transmitter probe that records core body temperature—Implantable Programmable Temperature Transponder (IPTT-300) by Bio Medic Data Systems (BMDS), DE, USA. The mice were allowed to recover for at least one week from the surgery before any recordings were made and observed in their home cages prior to pyrogen challenge for inducing fever. Temperatures were recorded using the BMDS DAS-8027-IUS data reading system.
(15% yeast, […]) (MilliporeSigma, Billerica, MA, USA) was used to induce fever. All animals used in this assay were male CD1 mice, which were fasted overnight (15 h) before the start of the assay. Mice received either yeast in 0.9% saline (sterile) (vehicle) or just 0.9% saline as an ip injection. […] All mice that didn't show a significant change in body temperature or appeared sick post-pyrogen challenge were excluded (n=5) from subsequent drug administrations.
Drug injection/concentration: All drugs and vehicle (10% DMSO: 10% labrasol:80% PEG400) were administered by oral gavage, PO administration. […]

[1] = test system: midbrain periaqueductal gray (PAG) cells; assay: Single-cell RNA sequencing of midbrain PAG in CFA-induced chronic inflammatory pain model; type: in vivo, rat; settings: CFA rats; for expression of FAAH, CORO2A and RPL7L1 (scRNAseq): 100 mg/kg, 1 h
Procedure: Subsequently, we endeavored to explore the single-cell transcriptome of the eVF rat mid-brain PAG region to further define the mechanisms of action (MOA) of chronic inflammatory pain and, ultimately, SRP-001- and ApAP-mediated pain modulation. Left hind paws of Sprague Dawley rats were injected with 150 μl of 50% complete Freund's adjuvant (CFA), freshly diluted with sterile saline on the day of administration, to induce conspicuous long-standing inflammatory pain in the rats' hind paws, along with mechanical hyperalgesia tested using eVF. […].
Single-cell (scRNA) RNA sequencing. For cell nuclei isolation from the midbrain PAG, they were flash-frozen, dissected (by a cryotome), minced into small pieces, homogenized, filtered through 70 strainer and centrifuged. ReadiDrop 7-AAD cell viability dye (Bio-Rad) added, and flow sorted the live ([…]) nuclei in a BioRad Cell Sorter S3e using purity mode. Nuclei were counted using Nexcelom automated Cellometer with acridine orange/propidium iodide (AOPI) stain, and the Nuclei Stock Concentration used so that 10,000 nuclei could be targeted for each sample. […] Post library construction QC was performed using Agilent Bioanalyzer 2100 on High Sensitivity DNA chips, and after verification of sample traces, each library normalized based on the average fragment size, and the concentration determined using Qubit 4.0 fluorometer (Thermo Fisher Scientific). […]
Data processing. […] Read alignment, filtering, barcode counting, peak calling, and counting of both ATAC and GEX molecules were performed using cellranger-arc count. […] Only confidently mapped reads with valid barcodes, unique molecular identifiers (UMIs), and non-PCR duplicated were retained. The overall sequencing quality was evaluated by looking at the summary metrics of the web_summary.html file generated for each sample. […]

hERG current = target: T1, hERG current (Homo sapiens, UniProt Q12809); assay: In vitro hERG cardiotoxicity assay in human embryonic kidney cells; type: cell-based
T1 construct: expressed in transfected cells; host or cells: human embryonic kidney cells
T1 sequence (Q12809 whole entry): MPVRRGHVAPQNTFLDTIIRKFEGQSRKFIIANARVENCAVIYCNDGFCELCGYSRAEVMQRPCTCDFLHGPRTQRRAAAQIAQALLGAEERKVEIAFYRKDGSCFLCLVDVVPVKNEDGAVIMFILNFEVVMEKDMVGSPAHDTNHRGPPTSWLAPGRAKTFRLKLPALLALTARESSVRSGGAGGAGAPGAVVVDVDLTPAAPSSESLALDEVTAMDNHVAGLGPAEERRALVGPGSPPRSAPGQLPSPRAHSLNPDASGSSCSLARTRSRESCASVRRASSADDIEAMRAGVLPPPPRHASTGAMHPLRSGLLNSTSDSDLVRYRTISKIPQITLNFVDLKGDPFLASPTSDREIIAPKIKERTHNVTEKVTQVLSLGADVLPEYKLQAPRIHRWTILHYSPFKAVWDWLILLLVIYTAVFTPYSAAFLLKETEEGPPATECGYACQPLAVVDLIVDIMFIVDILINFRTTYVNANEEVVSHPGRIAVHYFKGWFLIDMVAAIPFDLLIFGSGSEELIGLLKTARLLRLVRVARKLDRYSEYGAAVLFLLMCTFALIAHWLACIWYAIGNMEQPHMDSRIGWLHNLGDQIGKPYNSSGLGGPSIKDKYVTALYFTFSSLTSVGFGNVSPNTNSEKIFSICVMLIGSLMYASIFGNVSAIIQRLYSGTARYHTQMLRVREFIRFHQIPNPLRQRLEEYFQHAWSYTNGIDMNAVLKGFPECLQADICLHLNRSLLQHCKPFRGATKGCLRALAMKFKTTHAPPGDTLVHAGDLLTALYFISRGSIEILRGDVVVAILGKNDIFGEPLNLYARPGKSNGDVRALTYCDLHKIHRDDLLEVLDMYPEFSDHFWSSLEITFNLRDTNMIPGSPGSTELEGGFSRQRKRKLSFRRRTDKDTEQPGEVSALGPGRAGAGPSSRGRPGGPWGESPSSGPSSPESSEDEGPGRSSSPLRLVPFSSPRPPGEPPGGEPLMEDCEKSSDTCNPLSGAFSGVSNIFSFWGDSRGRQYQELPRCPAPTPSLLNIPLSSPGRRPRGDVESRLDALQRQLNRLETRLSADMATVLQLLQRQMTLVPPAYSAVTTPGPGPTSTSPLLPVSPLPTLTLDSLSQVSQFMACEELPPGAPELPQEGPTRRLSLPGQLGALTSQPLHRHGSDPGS
Procedure: The effects of SRP-001 on hERG current amplitude at physiologic temperatures were evaluated over a nominal concentration range of 0.1 μM to 100M. A vehicle group (10% DMSO) was included in the study for comparison, and dofetilide (10 nM) was used as a reference substance. The vehicle and positive controls indicated appropriate sensitivity of the test systems. […] Next, the potential acute effects of oral SRP-001 on cardiovascular function in conscious telemetered beagle dogs was done using a Latin Square design; 4 male naïve beagle dogs each received vehicle (10% DMSO: 10% labrasol: 80% PEG400) and three doses (30, 90, and 150 mg/kg) of SRP-001 nanosuspension by oral gavage. […] A single dose was administered on the day of dosing, and a washout period of seven days was allowed between doses. One-min means of hemodynamic parameters, as well as ECG parameters and body temperature, were measured for a period of at least 24 h. One-min tracings of the ECGs were obtained at 15 min prior to dosing and at 30 min, 1, 2, 4, 8, 12, and 24 h post-dose. Qualitative evaluation of the ECGs was done by a board-certified veterinary cardiologist.

Sprague-Dawley rats = assay: CFA inflammatory pain / von Frey with electronic detection (eVF); type: in vivo, rat; settings: behavioral assays

Compound	antipyresis, core body temperature (male CD1 mice)	expression of FAAH, CORO2A and RPL7L1 (scRNAseq) [1]	hERG signal / blocker class (hERG current; 0.1 μM to 100 μM)	block of hERG current (hERG current; 100 μM, highest concentration tested, physiologic temperatures) [%]	regulation of FAAH signaling genes ([1]; IPA analysis)	locomotor activity or motor incoordination (Sprague-Dawley rats)
CC(=O)Nc1ccc(O)cc1 [ApAP, acetaminophen]	subsequent reduction in core body temperature	Downregulation				
CCN(CC)C(=O)c1ccccc1S(=O)(=O)NCC(=O)Nc1ccc(O)cc1 [SRP-001, N,N-diethyl-2-[[2-(4-hydroxyanilino)-2-oxo-ethyl]sulfamoyl]benzamide]	subsequent reduction in core body temperature	Downregulation	weak blocker of hERG current; also recorded: absent relevant signal	21.4±3.9	more significantly regulated by SRP-001 than ApAP	no overt alterations

From patent publication US20250339391A1, “METHODS FOR EFFECTIVE MANAGEMENT OF PAIN” (South Rampart Pharma, Inc., priority 2024, published 2025)
